# Measurements reported in patent EP4570800A1, “CRYSTAL FORM OF PYRIDINOPYRIMIDINONE COMPOUND, ACID SALT THEREOF, CRYSTAL FORM OF ACID SALT THEREOF, AND USE” (Wuhan Humanwell Innovative Drug Research and Development …, priority 2022, dated 2024).
# Like-named read-outs stand apart in the source and are kept apart here.
# Columns and labels:
# CYP3A4 = target: T1, CYP3A4 (Homo sapiens, UniProt P08684); test: Cytochrome P450 inhibition test (CYP3A4, substrates midazolam and testosterone); format: in vitro ADME; conditions: compound 10 µM, human liver microsomes
# T1 construct: A human liver microsome solution at a concentration of 0.2 mg/mL was prepared; from tissue; host or cells: human liver microsomes
# T1 sequence (P08684 whole entry): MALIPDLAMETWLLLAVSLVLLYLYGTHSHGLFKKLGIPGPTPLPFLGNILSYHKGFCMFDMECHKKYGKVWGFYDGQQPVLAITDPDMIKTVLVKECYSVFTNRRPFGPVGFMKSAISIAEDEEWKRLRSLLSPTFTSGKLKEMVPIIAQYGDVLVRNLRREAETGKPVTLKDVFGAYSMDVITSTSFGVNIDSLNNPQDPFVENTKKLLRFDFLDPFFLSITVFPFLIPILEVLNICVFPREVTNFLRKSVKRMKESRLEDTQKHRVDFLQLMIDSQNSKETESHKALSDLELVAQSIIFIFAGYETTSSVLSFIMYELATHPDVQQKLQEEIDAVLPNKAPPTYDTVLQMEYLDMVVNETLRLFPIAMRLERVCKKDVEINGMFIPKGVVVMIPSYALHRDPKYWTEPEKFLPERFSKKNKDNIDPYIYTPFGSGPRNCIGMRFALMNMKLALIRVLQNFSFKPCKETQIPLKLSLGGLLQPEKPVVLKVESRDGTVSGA
# Experimental: The inhibitory potential of compounds on cytochrome P450 (CYP450) subtype CYP3A4 (two substrates of midazolam and testosterone) was detected. First, the compound to be tested was prepared into a 10 mM stock solution in DMSO solvent, and the CYP3A4 inhibitor ketoconazole was prepared as 10 mM, 2.5 mM, and 2.5 mM stock solutions in DMSO solvent. The test compound and ketoconazole were diluted to 400-fold final concentration (compound: 10 µM, ketoconazole: 2.5 µM) with acetonitrile.
# NADPH cofactor (10 mL of potassium phosphate buffer added with 66.7 mg NADPH) at 4-fold final concentration and substrates were prepared with potassium phosphate buffer (0.1 M, pH = 7.4), with CYP3A4 substrate midazolam at a final concentration of 320 µM and CYP3A4 substrate testosterone at a final concentration of 20 µM.
# A human liver microsome solution at a concentration of 0.2 mg/mL was prepared with potassium phosphate buffer on ice. A solution of the compound to be tested and a control inhibitor (control compound) solution at 2-fold final concentration were prepared with the human liver microsome solution on ice. The test wells were added with 30 mL of the test compound solution and the control inhibitor solution respectively, and then added with 15 mL of the substrate for duplication. […]
# [1] = tested on: ERK phosphorylation level in DLD-1 cells; test: Inhibition of ERK phosphorylation level in DLD-1 cells (intracellular western blot); format: cell-based; conditions: Homo sapiens
# Experimental: Intracellular western blot quantitative analysis was used to detect the inhibitory level of compounds on ERK phosphorylation in DLD-1 cells.
# DLD-1 cells (ATCC, CCL-221) were seeded in a T75 culture flask at 2.5 × 10^6 cells/flask, and cultured in a RPMI 1640 medium containing 10% FBS for 2 days. On day 3, the cells were seeded on a 384-well plate, and cultured overnight at 37°C, 5% CO2. After overnight culture, the plate was added with serially diluted compounds (the final content of DMSO was 0.5%), the negative group was added with DMSO, and incubated in a 37°C, 5% CO2 incubator.
# The cells were fixed, washed once with PBS, treated to disrupt membranes, and blocked at room temperature for 1 h. The blocking solution was removed. The plate was added with primary antibody (CST, Cat. No. #4370S), and incubated overnight at 4°C. The plate was washed 3 times with PBST (PBS solution added with 0.05% Tween-20), and soaked for 2 min each time. The plate was added with secondary antibody (LI-COR, Cat. No. 926-32211), and incubated at room temperature in the dark. The plate was washed 3 times with PBST, and soaked for 2 min each time. The plate was centrifuged at 1000 rpm for 1 min, scanned on a two-color infrared laser imaging system (Odyssey® CLX) to read the signal. Relative signal = 800-channel signal values/700-channel signal values. […]
# IC50 values were calculated using Graphpad 5 software.
smiles,measurement,setting,value
"Cc1nc(N[C@H](C)c2cccc(S(F)(F)(F)(F)F)c2)c2cn(C3(CF)CC3)c(=O)cc2n1 [Compound of formula I, (R)-6-(1-(fluoromethyl)cyclopropyl)-2-methyl-4-((1-(3-(pentafluorosulfanyl)phenyl)ethyl)amino)pyrido[4,3-d]pyrimidin-7(6H)-one]","inhibition at 5 min, 10 µM","CYP3A4; pH 7.4, probe midazolam, substrate midazolam, read-out: CYP inhibition rate (%) CYP3A4 (midazolam)",0%
same,"inhibition at 5 min, 10 µM","CYP3A4; pH 7.4, probe testosterone, substrate testosterone, read-out: CYP inhibition rate (%) CYP3A4 (testosterone)",0%
same,IC50,[1],56 nM
